Data from PMC7525093, “Bis-Quinolinium Cyclophane Blockers of SK Potassium Channels Are Antagonists of M3 Muscarinic Acetylcholine Receptors” (Frontiers in Pharmacology, 2020).
Where “and” joins values, the source holds several entries; their conditions need not be identical. Identical values can stand only once.

How the values were obtained:
[1] = molecular target: T1, human M3 muscarinic acetylcholine receptor (Homo sapiens, UniProt P20309); assay: R-CEPIAer ER calcium assay of Gq-coupled receptor activation, M3-transfected CHO-K1 cells; type: cell-based
T1 construct: host or cells: CHO-K1 cells, stably transfected
T1 sequence (P20309 whole entry): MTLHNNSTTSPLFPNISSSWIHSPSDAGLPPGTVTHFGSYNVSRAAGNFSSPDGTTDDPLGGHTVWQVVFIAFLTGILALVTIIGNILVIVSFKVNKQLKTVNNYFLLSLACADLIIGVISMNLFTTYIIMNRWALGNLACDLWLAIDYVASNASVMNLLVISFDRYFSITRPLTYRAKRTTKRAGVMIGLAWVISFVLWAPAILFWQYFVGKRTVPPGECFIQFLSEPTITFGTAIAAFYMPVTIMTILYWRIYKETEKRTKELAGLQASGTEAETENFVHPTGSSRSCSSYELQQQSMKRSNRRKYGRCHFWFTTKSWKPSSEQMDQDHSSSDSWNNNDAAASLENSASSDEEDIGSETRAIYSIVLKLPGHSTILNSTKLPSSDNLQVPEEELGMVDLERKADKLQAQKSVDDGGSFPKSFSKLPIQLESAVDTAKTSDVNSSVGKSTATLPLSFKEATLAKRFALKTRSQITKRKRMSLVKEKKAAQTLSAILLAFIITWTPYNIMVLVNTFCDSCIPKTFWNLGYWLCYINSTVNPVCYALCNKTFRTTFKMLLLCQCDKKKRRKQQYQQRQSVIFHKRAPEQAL
Experimental: The binding of antagonists to Gq-coupled receptors was determined by measuring IP3-mediated calcium depletion from the endoplasmic reticulum (ER). This was accomplished using CHO-K1 cells stably transfected with human M3 muscarinic acetylcholine receptor (CEM3000000, cDNA Resource Center, Bloomsburg University) and R-CEPIAer, a low affinity ER-targeted calcium indicator fluorescent protein ([Suzuki et al., 2014]). R-CEPIAer reporting of ER calcium concentration was assessed using 564 nm excitation light (>590 long-pass emission) at 20 second intervals on a Nikon swept-field confocal microscope using slit-scan mode, 2x2 Binning, and 100 millisecond frames. F/Fmax was fluorescence intensity normalized to maximal fluorescence intensity during the experiment. The response of cells to Gq-coupled receptor agonist were measured as the change in F/Fmax (ΔF/Fmax) from preagonist value to fluorescence minimum during agonist application (that occurs by IP3-mediated ER calcium depletion). […] Perfusion of each agonist application was for 2 min, while the antagonist overlapped and preceded the second agonist application by 3 min. […] IC50 was calculated by assaying fractional inhibition using a dose-response of antagonist concentrations (i.e. Figure 1D ). For assays of other receptors such as the M1 and M5 muscarinic receptors, H1 histamine and P2Y1 purinergic receptors, these receptors were transiently co-transfected with the pCMV R-CEPIAer plasmid (a gift from Masamitsu Iino (Addgene plasmid # 58216; http://n2t.net/addgene:58216; RRID : Addgene_58216)) into CHO cells using polyethylenimine [according to previous methods ([Longo et al., 2013])]. IC50 and EC50 values were estimated by fitting the dose-response relationship to a Hill equation.
To obtain a pKB using a Schild analysis ([Arunlakshana and Schild, 1959]), the acetylcholine EC50 was measured in the absence of UCL1684 and EC50′ measured in the presence of increasing concentrations of UCL1684. These values were used to calculate a dose ratio (DR = EC50′/EC50) for each UCL1684 concentration. The log(DR − 1) was plotted vs. log UCL1684 concentrations and fit to a linear equation where the theoretical X-intercept was used to estimate a pKB.

[2] = molecular target: SK3; design: method as in Benton D.C. et al., 2013; conditions: 125I-Apamin competition; ref Benton D.C. et al., 2013; read-out: Ki, SK3 channels; cited from earlier work
[3] = system: rat primary tracheal smooth muscle cells; assay: Cytosolic calcium imaging in rat tracheal smooth muscle cells; type: cell-based
Experimental: Rat trachea were isolated as described above, except that a guillotine was used for sacrifice instead of cervical dislocation. The dorsal muscle layer was removed from the hyaline cartilage rings and minced into ~1-mm fragments in Ca^2+-free HEPES-buffered Krebs solution (140 mM NaCl, 4.7 mM KCl, 1.13 mM MgCl2, 10 mM HEPES, 10 mM glucose, pH 7.3). The tracheal smooth muscle (TSM) fragments were digested with 2.5 U/ml papain (MP Biomedicals) with 1 mg/ml BSA fraction V and 1 mg/ml dithiothreitol at 37°C on a rocking platform (250 rotations/min) for 20 min. After washing once with the Ca^2+-free Krebs solution the TSM fragments were digested with 12.5 U/ml of type VII collagenase (Sigma Chemical) for 10 min on a rocking platform at 37°C, washed and centrifuged (750 G for two min.) three times in Ca^2+-free Krebs-BSA solution and gently triturated up to 5 min to disburse single tracheal myocytes. TSM cells were stored on ice in Ca^2+-free Krebs-BSA solution and used the same day.
TSM cells were placed on a coverslip in a 1 ml perfusion chamber on an inverted microscope and incubated with 20 μM Cal-520 AM dye (AAT Bioquest, Sunnyvale, California, USA) in 0.2% Pluronic F-127 and 1 mM probenecid in HBSS at room temperature for 30 min. The chamber was fitted with a top adaptor and coverslip (Warner Instruments, RC37WC) to establish a closed perfusion chamber. […]

[4] = system: mouse lung lower airways; assay: Bronchial diameter changes in mouse lung slices; conditions: 3.5 μM UCL 1684; 0.5 μM carbachol
Experimental: Experiments using mouse lung slices were conducted as described ([Sanderson, 2011]). Eight-week-old Balb/C mice were sacrificed by deep isoflurane anesthesia followed by cervical dislocation. Trachea were isolated, cannulated with a blunt needle and the lungs filled with 3 ml of Hanks balanced salt solution (HBSS) with 2% low-temperature melt agarose at 37°C followed by 0.5 ml of air to clear the airways of agarose. The mouse thoracic cavity was exposed and the lungs chilled with an ice bath. After gelling of the agarose, the lungs were removed and 200 μm sections made with a Leica Vibratome VT1200. The sections were placed in DMEM in a tissue-culture incubator at 37°C for up to 8 h. Experiments measuring diameter changes were conducted using an inverted 10X phase contrast objective and oblique lighting in a constant perfusion (0.5 ml/min) bath of HBSS at 22°C solution.

SMILES: c1cc2cc(c1)C[n+]1ccc(c3ccccc31)NCc1ccc(cc1)CNc1cc[n+](c3ccccc13)C2 [UCL 1684, 6,12,19,20,25,26-Hexahydro-5,27:13,18:21,24-trietheno-11,7-metheno-7H-dibenzo [b,n] [1,5,12,16]tetraazacyclotricosine-5,13-diium dibromide]
- IC50 [1]: 1.5 µM
- Nature of antagonism at M3 receptors [1]: competitive antagonist
- Hill slope of inhibition curve, M3 receptor ([1]; 0.5 μM carbachol, Hill equation fit): 1.8 ± 0.29
- Fractional inhibition of second carbachol response ([1]; 5 μM antagonist, 0.5 μM carbachol, 0 = none, 1 = complete inhibition): 0.99
- Schild plot slope ([1]; linear regression of log(DR-1) vs log UCL1684): 0.94
- Kb ([1]; read-out: Ki / KB from Schild analysis): 0.155 µM
- Ki [2]: 0.0077 µM
- Calcium response (integral) to second carbachol relative to first ([3]; 3.5 μM UCL 1684, 0.5 μM carbachol, rat TSMC): 0.42 ± 0.04
- activity at 3.5 µM ([3]; Rattus norvegicus, read-out: CCH-evoked cytosolic calcium, % of control): 42%
- Bronchial diameter during second carbachol challenge normalized to first challenge [4]: 178.3% and 178.3 ± 19.0%
